Laboratory results as given in US12226412B2, “Heteroaryl-ketone fused azadecalin glucocorticoid receptor modulators” (Corcept Therapeutics, Inc., priority 2012, dated 2025).
Like-named read-outs stand apart in the source and are kept apart here.

Experiments:
[1] = target: T1, human recombinant GR (Homo sapiens, UniProt P04150); assay: Human glucocorticoid receptor (GR) fluorescence polarisation (FP) binding assay
T1 construct: purchased PanVera P2812
T1 sequence (P04150 1-777): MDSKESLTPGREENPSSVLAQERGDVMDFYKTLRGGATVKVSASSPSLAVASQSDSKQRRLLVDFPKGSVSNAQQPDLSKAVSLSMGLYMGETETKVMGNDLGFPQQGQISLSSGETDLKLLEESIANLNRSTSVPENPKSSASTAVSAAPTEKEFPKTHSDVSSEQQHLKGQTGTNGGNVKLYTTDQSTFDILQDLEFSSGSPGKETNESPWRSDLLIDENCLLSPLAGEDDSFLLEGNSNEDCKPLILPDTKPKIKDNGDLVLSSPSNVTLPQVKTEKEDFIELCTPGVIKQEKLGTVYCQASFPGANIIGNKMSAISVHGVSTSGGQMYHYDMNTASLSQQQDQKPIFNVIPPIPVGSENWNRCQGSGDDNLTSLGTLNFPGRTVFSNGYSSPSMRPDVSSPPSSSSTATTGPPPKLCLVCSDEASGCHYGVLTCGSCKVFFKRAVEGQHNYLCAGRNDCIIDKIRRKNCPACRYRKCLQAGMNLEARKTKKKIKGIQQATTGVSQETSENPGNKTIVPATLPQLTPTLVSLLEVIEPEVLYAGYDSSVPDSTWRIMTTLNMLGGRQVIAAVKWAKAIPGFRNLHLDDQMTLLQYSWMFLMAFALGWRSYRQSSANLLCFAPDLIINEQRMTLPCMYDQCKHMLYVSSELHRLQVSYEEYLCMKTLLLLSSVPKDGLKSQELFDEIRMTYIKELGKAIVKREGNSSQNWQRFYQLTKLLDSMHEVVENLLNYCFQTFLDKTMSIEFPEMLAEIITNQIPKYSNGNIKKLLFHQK
Outline: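 Competition fluorescence polarisation: 0.5 nM GS Red labelled glucocorticoid and 1 nM recombinant human GR with 8-point half-log compound series, 1% DMSO, 4 h room temperature, potassium phosphate pH 7.4 buffer with molybdate, EDTA, DTT. Affinity derived from the drop in polarisation, normalised to blank wells.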

[2] = system: induction of TAT by dexamethasone in HepG2 cells; assay: HepG2 tyrosine aminotransferase (TAT) assay; assay type: cell-based, human; conditions: HepG2 cells, challenge of 100 nM dexamethasone; Ki from IC50 by Cheng and Prusoff equation
[3] = human recombinant GR, fluorescence polarisation binding assay, read-out: GR binding

SMILES | Ki [1, 3] | Ki [2] | Ki [1]
O=C(c1ccccn1)[C@]12Cc3cnn(-c4ccc(F)cc4)c3C=C1CCN(S(=O)(=O)c1ccc(N3CCOCC3)nc1)C2 [Example 3, (R)-(1-(4-fluorophenyl)-6-((6-morpholinopyridin-3-yl)sulfonyl)-4,4a,5,6,7,8-hexahydro-1H-pyrazolo[3,4-g]isoquinolin-4a-yl)(pyridin-2-yl)methanone] | < 0.5 nM | 20 to 100 nM | –
O=C(c1ccccn1)[C@]12Cc3cnn(-c4ccc(F)cc4)c3C=C1CCN(S(=O)(=O)c1cncc(F)c1)C2 [Example 5F, (R)-(1-(4-fluorophenyl)-6-((5-fluoropyridin-3-yl)sulfonyl)-4,4a,5,6,7,8-hexahydro-1H-pyrazolo[3,4-g]isoquinolin-4a-yl)(pyridin-2-yl)methanone] | < 0.5 nM | 20 to 100 nM | –
O=C(c1cscn1)[C@]12Cc3cnn(-c4ccc(F)cc4)c3C=C1CCN(S(=O)(=O)c1ccc(C(F)(F)F)cc1)C2 [Example 11, (R)-(1-(4-fluorophenyl)-6-((4-(trifluoromethyl)phenyl)sulfonyl)-4,4a,5,6,7,8-hexahydro-1H-pyrazolo[3,4-g]isoquinolin-4a-yl)(thiazol-4-yl)methanone] | – | 20 to 100 nM | < 0.5 nM
CCc1ccnc(C(=O)[C@]23Cc4cnn(-c5ccc(F)cc5)c4C=C2CCN(S(=O)(=O)c2cccc(C#N)c2)C3)c1 [Example 11AU, (R)-3-((4a-(4-ethylpicolinoyl)-1-(4-fluorophenyl)-4a,5,7,8-tetrahydro-1H-pyrazolo [3,4-g]isoquinolin-6 (4H)-yl)sulfonyl)benzonitrile] | < 0.5 nM | < 20 nM | –
Cc1ccnc(C(=O)[C@]23Cc4cnn(-c5ccc(F)cc5)c4C=C2CCN(S(=O)(=O)c2ccc4c(c2)CCO4)C3)c1 [Example 11AN, (R)-(6-((2,3-dihydrobenzofuran-5-yl)sulfonyl)-1-(4-fluorophenyl)-4,4a,5,6,7,8-hexahydro-1H-pyrazolo[3,4-g]isoquinolin-4a-yl)(4-methylpyridin-2-yl)methanone] | < 0.5 nM | < 20 nM | –
O=C(c1ccccn1)[C@]12Cc3cnn(-c4ccc(F)cc4)c3C=C1CCN(S(=O)(=O)c1ccccc1F)C2 [Example 2L, (R)-(1-(4-fluorophenyl)-6-((2-fluorophenyl)sulfonyl)-4,4a,5,6,7,8-hexahydro-1H-pyrazolo[3,4-g]isoquinolin-4a-yl)(pyridin-2-yl)methanone] | < 0.5 nM | < 20 nM | –
N#Cc1ccc(CS(=O)(=O)N2CCC3=Cc4c(cnn4-c4ccc(F)cc4)C[C@]3(C(=O)c3nccs3)C2)cc1 [Example 5B, (R)-4-(((1-(4-fluorophenyl)-4a-(thiazole-2-carbonyl)-4a,5,7,8-tetrahydro-1H-pyrazolo[3,4-g]isoquinolin-6 (4H)-yl)sulfonyl)methyl)benzonitrile] | < 0.5 nM | ≥ 100 nM | –
O=C(c1ccccn1)[C@]12Cc3cnn(-c4cccnc4)c3C=C1CCN(S(=O)(=O)c1cccc(C(F)(F)F)c1)C2 [Example 15A, (R)-pyridin-2-yl(1-(pyridin-3-yl)-6-((3-(trifluoromethyl)phenyl)sulfonyl)-4,4a,5,6,7,8-hexahydro-1H-pyrazolo[3,4-g]isoquinolin-4a-yl)methanone] | < 0.5 nM | 20 to 100 nM | –
CCn1cc(S(=O)(=O)N2CCC3=Cc4c(cnn4-c4ccc(F)cc4)C[C@]3(C(=O)c3cc(C(F)(F)F)ccn3)C2)cn1 [Example 15, (R)-(6-((1-ethyl-1H-pyrazol-4-yl)sulfonyl)-1-(4-fluorophenyl)-4,4a,5,6,7,8-hexahydro-1H-pyrazolo[3,4-g]isoquinolin-4a-yl)(4-(trifluoromethyl)pyridin-2-yl)methanone] | < 0.5 nM | < 20 nM | –
Cc1ccnc(C(=O)[C@]23Cc4cnn(-c5ccc(F)cc5)c4C=C2CCN(S(=O)(=O)c2cnn(C)c2)C3)c1 [Example 11T, (R)-(1-(4-fluorophenyl)-6-((1-methyl-1H-pyrazol-4-yl)sulfonyl)-4,4a,5,6,7,8-hexahydro-1H-pyrazolo[3,4-g]isoquinolin-4a-yl)(4-methylpyridin-2-yl)methanone] | < 0.5 nM | < 20 nM | –
Cn1cc(S(=O)(=O)N2CCC3=Cc4c(cnn4-c4ccc(F)cc4)C[C@]3(C(=O)c3cc(C(F)(F)F)ccn3)C2)cn1 [Example 18, (R)-(1-(4-fluorophenyl)-6-((1-methyl-1H-pyrazol-4-yl)sulfonyl)-4,4a,5,6,7,8-hexahydro-1H-pyrazolo[3,4-g]isoquinolin-4a-yl)(4-(trifluoromethyl)pyridin-2-yl)methanone] | < 0.5 nM | < 20 nM | –
Cc1cccc(S(=O)(=O)N2CCC3=Cc4c(cnn4-c4ccc(F)cc4)C[C@]3(C(=O)c3nccn3C)C2)c1 [Example 13A, (R)-(1-(4-fluorophenyl)-6-(m-tolylsulfonyl)-4,4a,5,6,7,8-hexahydro-1H-pyrazolo [3,4-g]isoquinolin-4a-yl)(1-methyl-1H-imidazol-2-yl)methanone] | < 0.5 nM | 20 to 100 nM | –
COc1ccc(S(=O)(=O)N2CCC3=Cc4c(cnn4-c4ccc(F)cc4)C[C@]3(C(=O)c3ccccn3)C2)cc1C [Example 11B, (R)-(1-(4-fluorophenyl)-6-((4-methoxy-3-methylphenyl)sulfonyl)-4,4a,5,6,7,8-hexahydro-1H-pyrazolo[3,4-g]isoquinolin-4a-yl)(pyridin-2-yl)methanone] | < 0.5 nM | < 20 nM | –
Cc1[nH]ncc1S(=O)(=O)N1CCC2=Cc3c(cnn3-c3ccc(F)cc3)C[C@]2(C(=O)c2cc(C(F)(F)F)ccn2)C1 [Example 11BK, (R)-(1-(4-fluorophenyl)-6-((5-methyl-1H-pyrazol-4-yl)sulfonyl)-4,4a,5,6,7,8-hexahydro-1H-pyrazolo[3,4-g]isoquinolin-4a-yl)(4-(trifluoromethyl)pyridin-2-yl)methanone] | < 0.5 nM | < 20 nM | –
O=C(c1ccccn1)[C@]12Cc3cnn(-c4ccc(F)cc4)c3C=C1CCN(S(=O)(=O)c1cccc(C(F)(F)F)n1)C2 [Example 11AD, (R)-(1-(4-fluorophenyl)-6-((6-(trifluoromethyl)pyridin-2-yl)sulfonyl)-4,4a,5,6,7,8-hexahydro-1H-pyrazolo[3,4-g]isoquinolin-4a-yl)(pyridin-2-yl)methanone] | < 0.5 nM | < 20 nM | –
Cn1ncnc1C(=O)[C@]12Cc3cnn(-c4ccc(F)cc4)c3C=C1CCN(S(=O)(=O)c1ccc(C(F)(F)F)cc1)C2 [Example 5D, (R)-(1-(4-fluorophenyl)-6-((4-(trifluoromethyl)phenyl)sulfonyl)-4,4a,5,6,7,8-hexahydro-1H-pyrazolo[3,4-g]isoquinolin-4a-yl)(1-methyl-1H-1,2,4-triazol-5-yl)methanone] | < 0.5 nM | ≥ 100 nM | –
Cc1ccnc(C(=O)[C@]23Cc4cnn(-c5ccc(F)cc5)c4C=C2CCN(S(=O)(=O)c2ccc4c(c2)OCCO4)C3)c1 [Example 11AR, (R)-(6-((2,3-dihydrobenzo[b][1,4]dioxin-6-yl)sulfonyl)-1-(4-fluorophenyl)-4,4a,5,6,7,8-hexahydro-1H-pyrazolo[3,4-g]isoquinolin-4a-yl)(4-methylpyridin-2-yl)methanone] | < 0.5 nM | < 20 nM | –
